Data reported in ChEMBL document CHEMBL5523727, “Discovery of KT-413, a Targeted Protein Degrader of IRAK4 and IMiD Substrates Targeting MYD88 Mutant Diffuse Large B-Cell Lymphoma” (J Med Chem, 2024).
pIC50, pKd: −log10 of the molar value.

Assays:
[1] = target: T1, Protein cereblon/Interleukin-1 receptor-associated kinase 4 (Homo sapiens, UniProt Q9NWZ3+Q96SW2); assay: PROTAC activity at CRBN/IRAK4 in human OCI-Ly10 cells assessed as induction of IRAK4 degradation measured after 24 hrs by MSD assay relative to control; type: cell-based
Target sequence in this assay (Q96SW2 whole entry, looked up): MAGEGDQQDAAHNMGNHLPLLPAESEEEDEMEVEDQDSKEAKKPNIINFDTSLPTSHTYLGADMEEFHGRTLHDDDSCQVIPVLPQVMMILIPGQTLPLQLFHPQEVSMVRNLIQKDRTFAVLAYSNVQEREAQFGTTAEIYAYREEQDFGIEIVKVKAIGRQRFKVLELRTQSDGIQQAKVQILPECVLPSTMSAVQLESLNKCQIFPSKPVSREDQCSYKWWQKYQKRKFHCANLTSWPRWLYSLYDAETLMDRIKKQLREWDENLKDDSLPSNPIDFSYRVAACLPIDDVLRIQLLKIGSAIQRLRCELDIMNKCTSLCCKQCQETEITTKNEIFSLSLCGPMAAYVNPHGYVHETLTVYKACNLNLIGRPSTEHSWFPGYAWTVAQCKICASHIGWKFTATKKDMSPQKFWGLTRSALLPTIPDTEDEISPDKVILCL
Target sequence in this assay (Q9NWZ3 whole entry, looked up): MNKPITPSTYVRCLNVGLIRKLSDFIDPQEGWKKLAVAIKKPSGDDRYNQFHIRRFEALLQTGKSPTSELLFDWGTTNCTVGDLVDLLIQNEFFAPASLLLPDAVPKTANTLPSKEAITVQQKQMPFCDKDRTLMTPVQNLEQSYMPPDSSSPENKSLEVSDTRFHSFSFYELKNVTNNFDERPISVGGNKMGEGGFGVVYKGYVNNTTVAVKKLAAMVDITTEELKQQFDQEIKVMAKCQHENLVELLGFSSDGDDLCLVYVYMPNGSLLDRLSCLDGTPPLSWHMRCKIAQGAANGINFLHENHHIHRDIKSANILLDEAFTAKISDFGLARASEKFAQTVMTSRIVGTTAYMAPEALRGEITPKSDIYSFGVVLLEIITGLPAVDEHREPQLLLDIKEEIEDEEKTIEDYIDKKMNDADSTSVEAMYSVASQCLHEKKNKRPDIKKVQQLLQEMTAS

[2] = Passive permeability of the compound in wild type MDCK cells across apical to basolateral side at 1 uM measured for 120 mins by LC-MS/MS analysis; type: ADME, cell-based, Canis lupus familiaris; details: dog, read-out: permeability
[3] = Metabolic stability in rat liver microsomes assessed as intrinsic clearance at 1 uM measured upto 60 mins in presence of NADPH by UPLC/MS-MS analysis; type: ADME, Microsome; details: read-out: CLH
[4] = Volume of distribution at steady state in rat at 2 mg/kg, iv by LC-MS/MS analysis; type: ADME, organism-based; details: in vivo, read-out: Vdss
[5] = target: T2, Cereblon/Ikaros (Homo sapiens, UniProt Q96SW2+Q13422); assay: PROTAC activity at CRBN/Ikaros in human OCI-Ly10 cells assessed as induction of Ikaros degradation measured after 24 hrs by MSD assay; type: cell-based
[6] = Half life in rat at 2 mg/kg, iv by LC-MS/MS analysis; type: ADME, organism-based; details: in vivo
[7] = Metabolic stability in human liver microsomes assessed as intrinsic clearance at 1 uM measured upto 60 mins in presence of NADPH by UPLC/MS-MS analysis; type: ADME, Microsome; details: read-out: CLH
[8] = AUC in rat at 10 mg/kg, po by LC-MS/MS analysis; type: ADME, organism-based; details: in vivo, read-out: AUC
[9] = Clearance in rat at 2 mg/kg, iv by LC-MS/MS analysis; type: ADME, organism-based; details: in vivo
[10] = Oral bioavailability in rat at 10 mg/kg by LC-MS/MS analysis; type: ADME, organism-based; details: in vivo
[11] = test system: OCI-Ly10; assay: Antiproliferative activity against human OCI-Ly10 cells measured after 4 days by CellTiter-Glo Luminescent Cell Viability Assay; type: functional, cell-based; details: Homo sapiens, OCI-Ly10, 96 h
[12] = target: T1, Protein cereblon/Interleukin-1 receptor-associated kinase 4; assay: PROTAC activity at CRBN/IRAK4 in human OCI-Ly10 cells assessed as induction of IRAK4 degradation measured after 24 hrs by MSD assay; type: cell-based
Target sequence in this assay (Q9NWZ3 whole entry): as the sequence (Q9NWZ3 whole entry, looked up) above
Target sequence in this assay (Q96SW2 whole entry): as the sequence (Q96SW2 whole entry, looked up) above

[13] = target: Protein cereblon (Homo sapiens, UniProt Q96SW2); assay: Binding affinity to CRBN (unknown origin) by HTRF assay
[14] = target: Protein cereblon/Interleukin-1 receptor-associated kinase 4 (Homo sapiens, UniProt Q96SW2+Q9NWZ3); assay: Binding affinity to CRBN/IRAK4 […] assessed as dissociation constant by DiscoverX Kd Elect assay
[15] = Oral bioavailability in rat at 5 mg/kg by LC-MS/MS analysis; type: ADME, organism-based; details: in vivo
[16] = AUC in rat at 5 mg/kg, po by LC-MS/MS analysis; type: ADME, organism-based; details: in vivo
[17] = Half life in human plasma; type: ADME, cell-free
[18] = Drug exposure in rat administered as iv bolus dose; type: ADME, organism-based; details: in vivo
[19] = Drug exposure in Non human primate administered as iv dose; type: ADME, organism-based; details: primates, in vivo
[20] = Half life in dog plasma; type: ADME, cell-free, Canis lupus familiaris
[21] = Half life in Non human primate plasma; type: ADME, cell-free; details: primates
[22] = Half life in rat plasma; type: ADME, cell-free
[23] = target: T2, Cereblon/Ikaros; assay: PROTAC activity at CRBN/Ikaros in human OCI-Ly10 cells assessed as induction of Ikaros degradation measured after 6 hrs by MSD assay relative to control; type: cell-based
[24] = Oral bioavailability in rat at 3 mg/kg by LC-MS/MS analysis; type: ADME, organism-based; details: in vivo
[25] = AUC in rat at 3 mg/kg, po by LC-MS/MS analysis; type: ADME, organism-based; details: in vivo

T2 sequence (Q96SW2 whole entry): as the sequence (Q96SW2 whole entry, looked up) above
T2 sequence (Q13422 whole entry): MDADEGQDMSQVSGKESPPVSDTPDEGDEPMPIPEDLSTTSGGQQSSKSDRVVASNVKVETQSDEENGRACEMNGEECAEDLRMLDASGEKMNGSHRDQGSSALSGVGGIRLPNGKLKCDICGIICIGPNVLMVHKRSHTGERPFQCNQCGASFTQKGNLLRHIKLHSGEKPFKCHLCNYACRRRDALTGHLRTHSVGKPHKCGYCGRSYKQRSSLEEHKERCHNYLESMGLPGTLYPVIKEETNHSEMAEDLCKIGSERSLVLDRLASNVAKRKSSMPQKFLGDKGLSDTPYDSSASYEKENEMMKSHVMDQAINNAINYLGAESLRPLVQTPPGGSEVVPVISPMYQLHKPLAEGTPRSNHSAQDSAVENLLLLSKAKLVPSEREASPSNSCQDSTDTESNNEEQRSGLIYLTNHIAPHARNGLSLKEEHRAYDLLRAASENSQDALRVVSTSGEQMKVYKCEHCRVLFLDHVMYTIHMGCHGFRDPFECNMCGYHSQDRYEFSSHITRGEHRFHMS
Sequence of Protein cereblon (Q96SW2 whole entry): as the sequence (Q96SW2 whole entry, looked up) above
Sequence of Protein cereblon/Interleukin-1 receptor-associated kinase 4 (Homo sapiens, UniProt Q96SW2+Q9NWZ3) (Q9NWZ3 whole entry): as the sequence (Q9NWZ3 whole entry, looked up) above
Sequence of Protein cereblon/Interleukin-1 receptor-associated kinase 4 (Homo sapiens, UniProt Q96SW2+Q9NWZ3) (Q96SW2 whole entry): as the sequence (Q96SW2 whole entry, looked up) above

CN(C[C@H]1CC[C@H](n2cc3cc(NC(=O)c4cccc(C(F)(F)F)n4)c(C(C)(C)O)cc3n2)CC1)[C@H]1CCC2(CC1)C[C@H](Nc1cccc3c1C(=O)N(C1CCC(=O)NC1=O)C3=O)C2 (some centres not stated)
Emax [1]: 86%

CN(CCCO[C@H]1C[C@H](Nc2cccc3c2C(=O)N(C2CCC(=O)NC2=O)C3=O)C1)C[C@H]1CC[C@H](n2cc3cc(NC(=O)c4cccc(C(F)(F)F)n4)c(C(C)(C)O)cc3n2)CC1 (some centres not stated)
Papp A→B at 2 h, 1 µM [2]: 4.9 ×10⁻⁶ cm/s | microsomal CLint at 1 µM [3]: 26 µL/min/mg | Vd [4]: 9.5 L/kg | DC50 [5]: 5 nM | half-life [6]: 3.8 h | microsomal CLint at 1 µM [7]: 68 µL/min/mg | AUC [8]: 0.76 µM·h | clearance [9]: 36 mL/min/kg | bioavailability [10]: 15% | pIC50 [11]: 7.85 | DC50 [12]: 4 nM | pIC50 [13]: 7.68 | pKd [14]: 9.20

CN(CCCOc1cccc2c1CN(C1CCC(=O)NC1=O)C2=O)C[C@H]1CC[C@H](n2cc3cc(NC(=O)c4cccc(C(F)(F)F)n4)c(C(C)(C)O)cc3n2)CC1 (some centres not stated)
Papp A→B at 2 h, 1 µM [2]: 4.8 ×10⁻⁶ cm/s | microsomal CLint at 1 µM [3]: 44 µL/min/mg | DC50 [5]: > 500 nM | microsomal CLint at 1 µM [7]: 19 µL/min/mg | Emax [1]: 80% | pIC50 [11]: 6.63 | DC50 [12]: 5 nM | pKd [14]: 9.66

COc1cc2nc([C@H]3CC[C@H](CN4CC5(CC(CCNc6cccc7c6C(=O)N(C6CCC(=O)NC6=O)C7=O)C5)C4)CC3)sc2cc1NC(=O)c1cccc(C(F)(F)F)n1 (some centres not stated)
Papp A→B at 2 h, 1 µM [2]: 0.18 ×10⁻⁶ cm/s | microsomal CLint at 1 µM [3]: 1 µL/min/mg | Vd [4]: 9.7 L/kg | DC50 [5]: 14 nM | half-life [6]: 24 h | microsomal CLint at 1 µM [7]: 1.5 µL/min/mg | bioavailability [15]: 23% | clearance [9]: 4.8 mL/min/kg | pIC50 [11]: 7.14 | DC50 [12]: 35 nM | AUC [16]: 2.5 µM·h

CC(C)(O)c1cc2c(cnn2CCCCCCCCCNc2cccc3c2C(=O)N(C2CCC(=O)NC2=O)C3=O)cc1NC(=O)c1cccc(C(F)(F)F)n1 (configuration not stated)
DC50 [5]: 56 nM | Emax [1]: 30% | pIC50 [11]: 6.18 | DC50 [12]: > 10000 nM | pIC50 [13]: 6.06 | pKd [14]: < 5.52

CC(C)(O)c1cc2nn([C@H]3CC[C@H](CN4CCC(O[C@H]5C[C@H](Nc6cccc7c6C(=O)N(C6CCC(=O)NC6=O)C7=O)C5)CC4)CC3)cc2cc1NC(=O)c1cccc(C(F)(F)F)n1 (some centres not stated)
Papp A→B at 2 h, 1 µM [2]: 26 ×10⁻⁶ cm/s | microsomal CLint at 1 µM [3]: 3.8 µL/min/mg | Vd [4]: 8.9 L/kg | DC50 [5]: 470 nM | half-life [6]: 16 h | microsomal CLint at 1 µM [7]: 4.1 µL/min/mg | AUC [8]: 5.3 µM·h | clearance [9]: 7 mL/min/kg | bioavailability [10]: 29% | pIC50 [11]: 5.64 | DC50 [12]: 5 nM | pIC50 [13]: 7.59

CC(C)(O)c1cc2nc([C@H]3CC[C@H](CN4CC5(CC(CCNc6cccc7c6C(=O)N([C@H]6CCC(=O)NC6=O)C7=O)C5)C4)CC3)sc2cc1NC(=O)c1cccc(C(F)(F)F)n1
half-life [17]: 4.03 h | Drug uptake [18]: 57% | DC50 [5]: 2 nM | Drug uptake [19]: 52% | half-life [20]: 2.58 h | DC50 [12]: 6.3 nM | half-life [21]: 3.35 h | half-life [22]: 2.15 h | pIC50 [13]: 8.52

CC(C)(O)c1cc2nn([C@H]3CC[C@H](CN4CCC5(CC4)CC(CNc4cccc6c4C(=O)N(C4CCC(=O)NC4=O)C6=O)C5)CC3)cc2cc1NC(=O)c1cccc(C(F)(F)F)n1 (some centres not stated)
Papp A→B at 2 h, 1 µM [2]: 2.2 ×10⁻⁶ cm/s | microsomal CLint at 1 µM [3]: 2.1 µL/min/mg | Vd [4]: 13 L/kg | DC50 [5]: 6 nM | half-life [6]: 11 h | microsomal CLint at 1 µM [7]: 2.8 µL/min/mg | bioavailability [15]: 1% | clearance [9]: 15 mL/min/kg | pIC50 [11]: 8.10 | DC50 [12]: 6 nM | AUC [16]: 0.06 µM·h | pIC50 [13]: 7.36

CN(CCCCc1cccc2c1C(=O)N(C1CCC(=O)NC1=O)C2=O)C[C@H]1CC[C@H](n2cc3cc(NC(=O)c4cccc(C(F)(F)F)n4)c(C(C)(C)O)cc3n2)CC1 (some centres not stated)
Papp A→B at 2 h, 1 µM [2]: 1.3 ×10⁻⁶ cm/s | DC50 [5]: > 1000 nM | pIC50 [11]: < 6.00 | DC50 [12]: 20 nM | pIC50 [13]: 7.04 | pKd [14]: 9.85 | Emax [23]: 40%

CC(C)(O)c1cc2nc([C@H]3CC[C@H](CN4CC5(CC(CCNc6cccc7c6C(=O)N([C@@H]6CCC(=O)NC6=O)C7=O)C5)C4)CC3)sc2cc1NC(=O)c1cccc(C(F)(F)F)n1
half-life [17]: 2.92 h | Drug uptake [18]: 48% | DC50 [5]: 9 nM | Drug uptake [19]: 30% | half-life [20]: 3.07 h | DC50 [12]: 19 nM | half-life [21]: 3.03 h | half-life [22]: 2.38 h | pIC50 [13]: 6.96

COc1cc2nc([C@H]3CC[C@H](CN4CC5(CC(CCNc6cccc7c6C(=O)N(C6CCC(=O)NC6=O)C7=O)C5)C4)CC3)oc2cc1NC(=O)c1cccc(C(F)(F)F)n1 (some centres not stated)
Papp A→B at 2 h, 1 µM [2]: 0.34 ×10⁻⁶ cm/s | microsomal CLint at 1 µM [3]: 2.9 µL/min/mg | Vd [4]: 9.6 L/kg | DC50 [5]: 6 nM | half-life [6]: 12 h | bioavailability [24]: 10% | microsomal CLint at 1 µM [7]: 3.9 µL/min/mg | clearance [9]: 9.4 mL/min/kg | Emax [1]: 68% | pIC50 [11]: 7.28 | DC50 [12]: 190 nM | AUC [25]: 0.5 µM·h

CC(C)(O)c1cc2nn([C@H]3CC[C@H](CN4CCC5(CC4)CC(Nc4cccc6c4C(=O)N(C4CCC(=O)NC4=O)C6=O)C5)CC3)cc2cc1NC(=O)c1cccc(C(F)(F)F)n1 (some centres not stated)
Papp A→B at 2 h, 1 µM [2]: 2.8 ×10⁻⁶ cm/s | microsomal CLint at 1 µM [3]: 2.7 µL/min/mg | Vd [4]: 13 L/kg | DC50 [5]: 27 nM | half-life [6]: 12 h | microsomal CLint at 1 µM [7]: 1.2 µL/min/mg | AUC [8]: 1.4 µM·h | clearance [9]: 13 mL/min/kg | bioavailability [10]: 17% | pIC50 [11]: 7.60 | DC50 [12]: 3 nM | pIC50 [13]: 8.00
